Columns and labels:
Experiment in all cases: GENEchip mRNA expression in gastrocnemius
Assay type in all cases: in vivo, rat
[1] = tested on: very low density lipoprotein receptor; details: probe 1369098_at
Method: (§1) After the period of test breeding, kidney was removed and frozen at −80° C. Using an LM200 system (Olympus Corporation), the renal glomerulus was cut from kidney of mice while keeping low temperature. tRNA of renal glomerulus was extracted using tRNA extraction regent “Isogen” (produced by Nippon Gene Co., Ltd.), and then preparation of cRNA and hybridization were performed according to the Affymetrix GeneChip Eukaryotic Small Sample Target Labeling Assay Ver. II.
(§2) (1) Synthesis of first strand cDNA: 1 μL of total RNA solution and 1 of 5 μM T7-Oligo(dT) primer were mixed, heated at 70° C. for 6 minutes, and then cooled at 4° C. for 2 minutes. 3 μL of RT_Premix_1 (1.5 μL DEPC-treated water, 4 μL 5× First strand Buffer, 2 μL DTT (0.1 M), 1.5 μL dNTP Mix (10 mM), 1 μL RNase inhibitor (40 U/μL), and 2 μL Super-Script II (200 U/μL)) was added and reverse transcribed at 42° C. for 1 hour. The sample was heated at 70° C. for 10 minutes to inactivate Super Script II, and then cooled to 4° C. (2) Synthesis of second strand cDNA: 32.5 μl of SS_Premix_1 (91 μL DEPC-treated water, 30 μL 5× Second Strand Buffer, 3 μL dNTP (10 mM), 1 μL E. coli DNA ligase (10 U/μL); 4 μL E. coli DNA polymerase (10 U/μL), and 1 μL RNase H (2 U/μL)) was added to the first strand cDNA solution and allowed to react for 2 hours at 16° C. (3) To the resulting cDNA, was added 1 μL T4 DNA polymerase (5 U/μl) and allowed to react for 10 minutes at 16° C., and purified by ethanol precipitation. (4) In vitro transcription: To the dried double-stranded cDNA pellet, was added 10 μL of reagents (4 μL DEPC-treated water, 4 μL premixed NTPs, 1 μL 10× reaction buffer, and 1 μL 10× enzyme mix), and allowed to react at 37° C. in a water bath for 6 hours. (5) First cycle cRNA was purified using the RNeasy Mini Kit in accordance with the protocol in the handbook (QIAGEN). (6) Subsequently, for the amplification and labeling, the cRNA sample was mixed with random primers (0.2 μg/μL), treated at 70° C. for 10 minutes, cooled on ice for 2 minutes, 5 μL of RT_Premix_2 (5× First Strand Buffer, DTT (0.1 M), dNTP mix (10 mM), RNase inhibitor (40 U/μL), and SuperScript II (200 U/μL) was added, and allowed to react at 42° C. for 1 hour. (7) Next, Second Sstrand cDNA synthesis was carried out by adding 5 μM T7-Oligo(dT) promoter treating at 70° C. for 6 minutes, cooling at 4° C., and adding 62 μL of SS_Premix_2 (43 μL it DEPC-treated water, 15 μL 5× Second Strand Buffer, 1.5 μL dNTP mix (10 mM), and 2 μL E. coli DNA polymerase (10 U/μL)). (8) To the resulting cDNA, was treated added 1 μL of T4 DNA polymerase (5 U/μL), allowed to react at 16° C. for 10 minutes, and purified by ethanol precipitation. (9) To perform in vitro transcription and labeling with the ENZO BioArray High Yield RNA Transcript Labeling Kit, 40 μL of reagents (22 μL DEPC-treated solution, 4 μL 10×HY reaction buffer, 4 μL 10× biotin-labeled ribonucleotides, 4 μL 10×DTT, 4 μL 10× RNase to inhibition mix, and 2 μL 20× T7 RNA polymerase) were added, and allowed to react at 37° C. for 4 hours. (10) Labeled cRNA target was purified with RNeasy columns. (11) The fragmentation and hybridization were performed according to “GeneChip Expression Analysis Technical Manual”.
(§3) The prepared labeled cRNA was hybridized to a GeneChip “mouse Expression Set 430A, representing a total of 22,690 mouse transcripts” (Affymetrix). For data analysis, the GeneChip Analysis Suite Ver. 5.1 (Affymetrix) was used. All microarrays were scaled to a target intensity of 1000 and were compared with background, noise, and overall staining intensity. Differentially expressed transcripts were identified by algorithms of the software y Affymetrix.
(§4) 9-week-old Wistar male rats were bred each being fed a normal diet for breeding and water ad libitum under the conditions with a 12 hours light-dark cycle at a temperature of 21° C. to 25° C. and were accustomed to the environment in advance. […]

[2] = tested on: Protein phosphatase 3, catalytic subunit gamma isoform; details: probe 1398469_at
Method: [The source words this procedure for another organism and reports this organism under the same test.] as §1, §2, §3, §4

[3] = tested on: ATP-binding cassette, sub-family B (MDR/TAP), member; details: probe 1369161_at
Method: as §1, §2, §3, §4

[4] = tested on: murine thymoma viral (v-akt) oncogene homolog 2; details: probe 1387353_at
Method: as §1, §2, §3, §4

[5] = tested on: neuronatin; details: probe 1369999_a_at
Method: [The source words this procedure for another organism and reports this organism under the same test.] as §1, §2, §3, §4

[6] = tested on: transforming growth factor, beta 2; details: probe 1387172_a_at
Method: as §1, §2, §3, §4

[7] = denervated left leg gastrocnemius, astaxanthin group vs control group
[8] = denervated left leg gastrocnemius, astaxanthin-administered group
[9] = right leg (control) gastrocnemius, astaxanthin group vs control group
[10] = right leg (control) gastrocnemius, astaxanthin-administered group

CC1=C(/C=C/C(C)=C/C=C/C(C)=C/C=C/C=C(C)/C=C/C=C(C)/C=C/C2=C(C)C(=O)C(O)CC2(C)C)C(C)(C)CC(O)C1=O (stereo not drawn) [astaxanthin, 3,3′-dihydroxy-β,β-carotene-4,4′-dione]
gene expression intensity ratio ad/nd [1, 7]: 1.49 | luminescence intensity ad [1, 8]: 318 | gene expression intensity ratio ac/nc [1, 9]: 1.00 | luminescence intensity ac [1, 10]: 500.5 | gene expression intensity ratio ad/nd [2, 7]: 1.90 | luminescence intensity ad [2, 8]: 333.1 | gene expression intensity ratio ac/nc [2, 9]: 1.09 | luminescence intensity ac [2, 10]: 523.6 | gene expression intensity ratio ad/nd [3, 7]: 1.41 | luminescence intensity ad [3, 8]: 306.9 | gene expression intensity ratio ac/nc [3, 9]: 1.34 | luminescence intensity ac [3, 10]: 677.1 | gene expression intensity ratio ad/nd [4, 7]: 0.67 | luminescence intensity ad [4, 8]: 1042.6 | gene expression intensity ratio ac/nc [4, 9]: 0.83 | luminescence intensity ac [4, 10]: 715.4 | gene expression intensity ratio ad/nd [5, 7]: 0.61 | luminescence intensity ad [5, 8]: 640.7 | gene expression intensity ratio ac/nc [5, 9]: 0.79 | luminescence intensity ac [5, 10]: 106.4 | gene expression intensity ratio ad/nd [6, 7]: 0.57 | luminescence intensity ad [6, 8]: 677.8 | gene expression intensity ratio ac/nc [6, 9]: 1.06 | luminescence intensity ac [6, 10]: 479.9

— patent US10828269B2, “Reducing muscle atrophy by administering astaxanthin” (FUJI CHEMICAL INDUSTRIES CO., LTD., priority 2004, dated 2020)
